# Measured values: US20260146991A1, “COMPOSITION AND METHODS OF AGING-RELATED AGENT SCREENING AND TARGET ANALYSIS” (Centre for Translational Stem Cell Biology Limited, priority 2022, published 2026)
# Entries after “also recorded” stand apart in the source; their conditions may differ.
# Experiments:
# [1] = test system: TSCs differentiating towards STBs; test: RT-qPCR of aging-related marker genes during TSC-STB differentiation; assay type: cell-based, human; conditions: FIG. 4H
# Protocol: (§1) To generate the hTSC cell lines, the single cell suspension of hEPSCs were plated on a 6-well plate (1-2×10^3/well) pre-coated with 10 mg/mL Geltrex™ LDEV-Free Reduced Growth Factor Basement Membrane Matrix or Matrigel and cultured in human trophoblast stem cell medium (hTSCM) for 7-10 days. Then single colonies of the differentiated cells on the 6-well plate were picked and expanded. The expanded cell lines were validated with trophoblast markers and RNA-Seq analysis. The established TSC cell lines were maintained in the hTSCM medium and passaged at ratio 1:4-1:5 every 3-5 days. The hTSCM was DMEM/F12 based medium supported with: 110 μM β-mercaptoethanol, 0.2% FBS, 0.5% Penicillin-Streptomycin-Glutamine, 0.3% BSA, 1×ITS-X supplement, 50.0 μg/mL Vc, 50.0 ng/ml EGF, 2.0 μM CHIR99021, 0.5 μM A83-01, 1.0 μM SB431542, 0.8 μM VPA, and 5.0 μM Y27632. Established TSC cells were seeded at 1.0×10^5-2×10^5 cells per well in a six-well plate pre-coated with 10 mg/mL Geltrex™ LDEV-Free Reduced Growth Factor Basement Membrane Matrix or Matrigel, and were induced to differentiate into STBs after culturing in syncytiotrophoblasts medium (STBM) for around 6 days. The STBM comprises: DMEM/F12 supplemented with 110 μM β-mercaptoethanol, 0.5% Penicillin-Streptomycin, 0.3% BSA, 1×ITS-X, 2.5 μM Y27632, 2 μM Forskolin, and 4% KnockOut Serum Replacement. The cells became early syncytiotrophoblasts on day 2-3, and mature syncytiotrophoblasts around day 6.
# RT-qPCR: Total RNA was extracted using RNeasy Mini Kit (Qiagen) per manufacturer specification. Extracted RNA was then reverse transcribed to cDNA using Fastking gDNA diselling RT SuperMix (Tiangen). Gene expression was measured using PowerUp™ SYBR™ Green Master Mix (Applied Biosystems) and StepOnePlus™ Real-Time PCR (Applied Biosystems) with the primers listed in Table E1A. Raw gene expression data was normalized to GAPDH by using the ΔCt method. Statistical analysis was carried out using either one/two-tailed student's t-test in Prism 8 (GraphPad).
# (§2) First, a known anti-aging drug Rapamycin was tested. TSCs in good growing state were seeded at 1.0×10^4-2×10^4 cells per well in a 24-well plate pre-coated with 10 mg/mL Geltrex™ LDEV-Free Reduced Growth Factor Basement Membrane Matrix or Matrigel. After 24 hours, 3 wells continued in TSCM; 3 wells switched to STBM+DMSO; 3 wells switched to STBM+Rapamycin (500 nM). The media was changed every 2-3 days. On day 6, β-hCG was measured by ELISA as described in Example 1. Expression of aging-related marker genes (e.g., CGA and CGB3) was measured by RT-qPCR as described in Example 1.
# [2] = test system: TSC-STB differentiation; test: TSC-STB system, overall evaluation of anti-aging effect; assay type: cell-based, human; conditions: summary statement
# Protocol: (§3) Same number of TSCs in robust growing state were seeded in STBM with/without a candidate agent in a black Polystyrene TC-treated 96-well Microplate pre-coated with 10 mg/ml Geltrex™ LDEV-Free Reduced Growth Factor Basement Membrane Matrix or Matrigel (1.5×10^4-2×10^4 cells per well). On each screening microplate, 3 wells of control (cells only with 0.5% DMSO in 100 μL STB growth medium) and 3 wells of positive control (some well-known anti-ageing agents in certain concentration) were included. The cells were cultured at 37° C. and 5% CO2 with saturating humidity and differentiated into mature STB in the medium for 6 days. Cell morphology was monitored daily under a microscope. The signal readouts of reporter molecules was assessed on day 2, day 4, and day 6. On day 6, cells in each well were fixed and stained with DAPI or Hoechst, and cell count and intensity (both reporter and nuclei) were assessed using high content microscopy to assess the agent's effects and cell viability. The agents, especially those that affect cell viability will also be tested at different concentrations and at different day during the STB differentiation process.
# as §2
# [3] = test system: TSCs differentiating towards STBs; test: Cell morphology, viability and proliferation during TSC-STB differentiation; assay type: cell-based, human; conditions: for morphology: appearance of multinucleated STB cells: treated cells during TSC-STB differentiation, FIG. 4E
# Protocol: as §1, §3, §2
# [4] = test system: TSCs differentiating towards STBs; test: ELISA of secreted β-hCG during TSC-STB differentiation; assay type: cell-based, human; conditions: compared to the DMSO control group; FIG. 4F
# Protocol: as §1, with “The STBM comprises: DMEM/F12 supplemented with 110 μM β-mercaptoethanol, 0.5% Penicillin-Streptomycin, 0.3% BSA, 1×ITS-X, 2.5 μM Y27632, 2 μM Forskolin, and 4% KnockOut Serum Replacement. The cells became early syncytiotrophoblasts on day 2-3, and mature syncytiotrophoblasts around day 6.” left out
# First, a known anti-aging drug Rapamycin was tested. […] On day 6, β-hCG was measured by ELISA as described in Example 1. Expression of aging-related marker genes (e.g., CGA and CGB3) was measured by RT-qPCR as described in Example 1.
# [5] = test system: TSCs differentiating towards STBs; test: Western blot of β-hCG during TSC-STB differentiation; assay type: cell-based, human; conditions: at certain / different concentrations, FIG. 4I
# Protocol: Western blot: The proteins were extracted with RIPA lysis (thermofisher, Cat. 89901) and Pierce Protease Inhibitor Mini Tablets (thermofisher, Cat. A32953). Protein concentrations were measured with Pierce™ BCA Protein Assay Kits (thermofisher, Cat. 23227). Then samples with certain amount of NuPAGE™ LDS Sample Buffer (4×) (thermofisher, Cat. NP0008) were boiled at 70 degree for 10 min. Boiled samples were loaded with the same amount and separated in 12% polyacrylamide gels (Thermofisher Cat. NP0343BOX) and transferred to PVDF membranes using the Bio-Rad transblot turbo system according to the manufacturer's guidance. Images were developed by the ChemiDoc Imaging System and processed with ImageJ 1.47v. The following primary antibodies were used: anti-GAPDH (thermosfisher, Cat. AM4300, 1:10000 for western blot), anti-Ki67 (thermofisher, Cat. MA5-14520, 1:1000 for western blot, 1:200 for IF), anti-HERVK-gag (Austral Biologicals, Cat. HERM-1811-5, 1:200 for IF), anti-TRF1 (Abcam, Cat. ab 10579, 1:100 for IF), anti-ZO-1 (CST, Cat. 13663, 1:200 for IF), anti-CGB3 (Abcam, Cat. Ab131170, 1:200 for IF), anti-H3 (CST, Cat. 4499 1:2000 for western blot), anti-H3K9mc3 (Abcam, Cat. ab8898, 1:1000 for western blot), anti-E-cadherin (CST, Cat. 14472, 1:200 for IF), anti-p38 MAPK (thermofisher, Cat. 338700, 1:1000 for western blot), anti-LaminB1 (thermofisher, Cat. 702972, 1:1000 for western blot, 1:200 for IF), anti-p27 Kip1 (thermofisher, Cat. PA527188, 1:1000 for western blot), anti-Hp1 gamma (thermofisher, Cat. MA3054, 1:1000 for western blot, 1:300 for IF), anti-SIRT1 (CST, Cat. 8469S, 1:1000 for western blot), anti-SIRT6 (CST, Cat. 12486S, 1:1000 for western blot), anti-SIRT3 (thermofisher, Cat. MA514910, 1:1000 for western blot), anti-p53 (thermofisher, Cat. MA512557, 1:1000 for western blot, 1:200 for IF), anti-gammaH2AX (CST, Cat. 2577s, 1:1000 for western blot, 1:200 for IF), anti-IL-6 (thermofisher, Cat. MA523698, 1:50 for IF), anti-hCG (thermofisher, Cat. 14-6508-82, 1:1000 for western blot, 1:200 for IF). […]
# [6] = background; cited from earlier work
# [7] = test system: model organisms; conditions: yeast, worms, flies, male mice; background; cited from earlier work
Compound,CGA expression ([1]; 1 μM),CGA expression ([1]; 10 μM),anti-aging effect in the TSC-STB system [2],morphology: appearance of multinucleated STB cells [3],also measured
"NC(=O)c1ccc[n+]([C@@H]2O[C@H](COP(=O)([O-])O)[C@@H](O)[C@H]2O)c1 [NMN, Nicotinamide mononucleotide]",reduced,increasing,showed anti-aging effects as expected,–,–
STM2457,–,–,–,delayed appearance of multinucleated STB cells,–
NCCCCNCCCN [Spermdine],decrease,decrease,–,–,–
CC(C)n1nc(-c2ccc3oc(N)nc3c2)c2c(N)ncnc21 [INK128],–,–,–,delayed appearance of multinucleated STB cells,secreted β-hCG level (ELISA) [4]: significantly lower; β-hCG expression (Western blot) [5]: significantly reduce; also recorded: reduced
CN(C)C(=N)N=C(N)N [metformin],–,–,showed anti-aging effects as expected,–,–
CC(C)C(=O)OC[C@H]1O[C@@H](n2ccc(NO)nc2=O)[C@H](O)[C@@H]1O [Molnupiravir],–,–,–,delayed appearance of multinucleated STB cells,–
Cc1ccc(-c2cc(C(F)(F)F)nn2-c2ccc(S(N)(=O)=O)cc2)cc1 [celecoxib],–,–,–,–,side effects in humans [6]: major bleeding events and increase in all-cause mortality
O=c1c(O)c(-c2ccc(O)c(O)c2)oc2cc(O)ccc12 [Fisetin],reduced,increasing,showed anti-aging effects as expected,–,β-hCG expression (Western blot) [5]: reduced; β-hCG expression (Western blot) ([5]; listed as Fisctin): significantly reduce
CC(C)C[C@H](NC(=O)OCc1ccccc1)C(=O)N[C@@H](C[C@@H]1CCNC1=O)C(O)S(=O)(=O)[O-].[Na+] (some centres unmarked) [GC376],–,–,–,delayed appearance of multinucleated STB cells,–
O=c1c(O)c(-c2ccc(O)c(O)c2)oc2cc(O)cc(O)c12 [Quercetin],decrease,decrease,showed anti-aging effects as expected,–,–
CC(C)Cc1ccc(C(C)C(=O)O)cc1 (centres unmarked) [ibuprofen],–,–,–,–,lifespan in some model organisms [7]: extend lifespan; side effects in humans [6]: major bleeding events and increase in all-cause mortality
CO[C@H]1C[C@@H]2CC[C@@H](C)[C@@](O)(O2)C(=O)C(=O)N2CCCC[C@H]2C(=O)O[C@H]([C@H](C)C[C@@H]2CC[C@@H](O)[C@H](OC)C2)CC(=O)[C@H](C)/C=C(\C)[C@@H](O)[C@@H](OC)C(=O)[C@H](C)C[C@H](C)/C=C/C=C/C=C/1C [Rapamycin],–,–,–,–,"cell viability or proliferation ([3]; 500 nM, FIG. 4A): did not affect"
CC(=O)Oc1ccccc1C(=O)O [aspirin],–,–,–,–,lifespan in some model organisms [7]: extend lifespan; side effects in humans [6]: increase the risk of gastrointestinal bleeding
